Assay [1] concerns the target Biotinylated KRAS G12C protein (Homo sapiens (Human), UniProt P01116, C118S/C51S/C80L/G12C). Nature of the assay: SOS-catalyzed nucleotide exchange assay (TR-FRET). Format: biochemical. The note with it: in vitro apparent potency; preincubation time of 60 minutes prior to addition of SOS. Put shortly: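 Biotinylated KRAS G12C preloaded with Bodipy-GDP and Tb-streptavidin, then incubated with compound (10-point, 3-fold series) for 60 min at RT. Exchange started with SOS and GTP for 60 min. TR-FRET 520/495 ratio normalised to DMSO and saturating-inhibitor controls; four-parameter fit.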

The subject of assay [2] is phospho-ERK. The assay can be described thus: Cellular phospho-ERK assay. Format: cell-based. To be noted: NCI-H358 cells, 2 hour incubation, ratio of p-Erk vs total Erk, read-out: IC50 (nM) pERK (Cell). In outline:
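NCI-H358 cells seeded overnight, then exposed to compound dose-response titrations for 2 hours at 37° C. in RPMI. Lysates assayed by AlphaLISA SureFire Ultra multiplex for p-Erk and total Erk; ratio p-Erk/total Erk used as readout, IC50 from 4-parameter logistic fit.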

Like-named read-outs stand apart in the source and are kept apart here.

Biotinylated KRAS G12C protein, sequence (P01116 other isoform, or with tags, fused parts or gaps, stated change not applied): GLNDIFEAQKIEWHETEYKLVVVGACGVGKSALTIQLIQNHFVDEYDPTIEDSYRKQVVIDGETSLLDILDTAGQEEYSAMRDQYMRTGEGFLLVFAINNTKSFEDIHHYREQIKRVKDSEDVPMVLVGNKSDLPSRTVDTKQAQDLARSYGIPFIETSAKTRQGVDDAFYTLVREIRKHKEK

Consider `C=CC(=O)N1C[C@H](C)N(c2nc(=O)n3c4nc(c(F)cc24)-c2c(ccc(F)c2F)OCC2(CC2)Cc2ccnc(C(C)C)c2-3)C[C@H]1C` [Example 92, 2′-[(2S,5R)-2,5-dimethyl-4-(prop-2-enoyl)piperazin-1-yl]-16′,17′,20′-trifluoro-6′-(propan-2-yl)-4′H,10′H,12′H-spiro[cyclopropane-1,11′-[13]oxa[3,5,7,19]tetraaza[1,18]ethenopyrido [4,3-e]pyrimido[1,6-g][1,7,9]benzoxadiazacyclododecin]-4′-one], for which the IC50 in assay [1] was determined as 0.71 nM; in assay [2] (Homo sapiens, NCI-H358, 2 h), 12 nM.
With `C=CC(=O)N1C[C@H](C)N(c2nc(=O)n3c4cc(c(F)cc24)-c2c(F)ccc(F)c2OCCOc2ccnc(C(C)C)c2-3)C[C@H]1C` [Example 93, 2-[(2S,5R)-2,5-dimethyl-4-(prop-2-enoyl)piperazin-1-yl]-14,17,20-trifluoro-6-(propan-2-yl)-11,12-dihydro-4H-1,18-(ethanediylidene)pyrido[4,3-e]pyrimido[1,6-g][1,4,7]benzodioxazacyclododecin-4-one], the half-maximal inhibitory concentration (IC50) came out at 31 nM in assay [1] and 572 nM in assay [2] (Homo sapiens, NCI-H358, 2 h).
As for `C=CC(=O)N1C[C@H](C)N(c2nc(=O)n3c4nc(c(F)cc24)-c2c(F)ccc(F)c2OC[C@H](C)Oc2ccnc(C(C)C)c2-3)C[C@H]1C` [Example 94, (11S)-2-[(2S,5R)-2,5-dimethyl-4-(prop-2-enoyl)piperazin-1-yl]-14,17,20-trifluoro-11-methyl-6-(propan-2-yl)-11,12-dihydro-4H-1,18-ethenopyrido[4,3-e]pyrimido[1,6-g][1,4,7,9]benzodioxadiazacyclododecin-4-one], the values for the IC50 in assay [1] and in assay [2] were 3.4 nM and 42 nM, respectively.
Consider `C=CC(=O)N1C[C@H](C)N(c2nc(=O)n3c4nc(c(F)cc24)-c2c(F)ccc(F)c2OCCCc2ccnc(C(C)C)c2-3)C[C@H]1C` [Example 95, 2-[(2S,5R)-2,5-dimethyl-4-(prop-2-enoyl)piperazin-1-yl]-14,17,20-trifluoro-6-(propan-2-yl)-11,12-dihydro-4H,10H-1,18-(ethanediylidene)pyrido[4,3-e]pyrimido[1,6-g][1,7,9]benzoxadiazacyclododecin-4-one], for which the IC50 in assay [1] was found to be 2.5 nM; in assay [2] (Homo sapiens, NCI-H358, 2 h), 15 nM.
For `C=CC(=O)N1C[C@H](C)N(c2nc(=O)n3c4nc(c(F)cc24)-c2c(F)cccc2OCCc2ccnc(C(C)C)c2-3)C[C@H]1C` [Example 96, 2-[(2S,5R)-2,5-dimethyl-4-(prop-2-enoyl)piperazin-1-yl]-16,19-difluoro-6-(propan-2-yl)-10,11-dihydro-4H-1,17-ethenopyrido[4,3-d]pyrimido[1,6-f][1,6,8]benzoxadiazacycloundecin-4-one], in that order: 3.8 nM and 32 nM.
As for `C=CC(=O)N1CCN(c2nc(=O)n3c4nc(c(F)cc24)-c2c(ccc(F)c2F)OCC(F)(F)CCc2ccnc(C(C)C)c2-3)[C@@H](C)C1` [Example 97, 12,12,17,18,21-pentafluoro-2-[(2S)-2-methyl-4-(prop-2-enoyl)piperazin-1-yl]-6-(propan-2-yl)-10,11,12,13-tetrahydro-4H-1,19-(ethanediylidene)pyrido[4,3-f]pyrimido[1,6-h][1,8,10]benzoxadiazacyclotridecin-4-one], the IC50 in assay [1] came out at 0.56 nM; in assay [2], 3 nM.
For `C=CC(=O)N1CCN(c2nc(=O)n3c4nc(c(F)cc24)-c2c(F)cccc2OCCCc2ccnc(C(C)C)c2-3)[C@@H](CC)C1` [Example 98, 2-[(25)-2-ethyl-4-(prop-2-enoyl)piperazin-1-yl]-17,20-difluoro-6-(propan-2-yl)-11,12-dihydro-4H,10H-1,18-(ethanediylidene)pyrido[4,3-e]pyrimido[1,6-g][1,7,9] benzoxadiazacyclododecin-4-one], the IC50 in assay [1] was found to be 11 nM; in assay [2] (Homo sapiens, NCI-H358, 2 h), 49 nM.
For the compound `C=CC(=O)N1CCN(c2nc(=O)n3c4nc(c(F)cc24)-c2c(F)cccc2OCCCc2ccnc(C(C)C)c2-3)C(C(F)F)C1` (stereo not drawn) [Example 99, 2-[2-(difluoromethyl)-4-(prop-2-enoyl)piperazin-1-yl]-17,20-difluoro-6-(propan-2-yl)-11,12-dihydro-4H,10H-1,18-ethenopyrido[4,3-e]pyrimido[1,6-g][1,7,9]benzoxadiazacyclododecin-4-one], the IC50 stood at 12 nM in assay [1] and 22 nM in assay [2] (Homo sapiens, NCI-H358, 2 h).
As for `C=CC(=O)N1CCN(c2nc(=O)n3c4nc(c(F)cc24)-c2c(F)cccc2OCCCc2ccnc(C(C)C)c2-3)C(Cc2ccccc2)C1` (stereo not drawn) [Example 100, 2-[2-benzyl-4-(prop-2-enoyl)piperazin-1-yl]-17,20-difluoro-6-(propan-2-yl)-11,12-dihydro-4H,10H-1,18-ethenopyrido[4,3-e]pyrimido[1,6-g][1,7,9]benzoxadiazacyclododecin-4-one], the IC50 in assay [1] is 25 nM; in assay [2] (Homo sapiens, NCI-H358, 2 h) it was 508 nM.
The matching figures for `C=CC(=O)N1CCN(c2nc(=O)n3c4nc(c(F)cc24)-c2c(F)cccc2OCCCc2ccnc(C(C)C)c2-3)C(C)(C)C1` [Example 102, 2-[2,2-dimethyl-4-(prop-2-enoyl)piperazin-1-yl]-17,20-difluoro-6-(propan-2-yl)-11,12-dihydro-4H,10H-1,18-ethenopyrido[4,3-e]pyrimido[1,6-g][1,7,9] benzoxadiazacyclododecin-4-one]: 35 nM and 149 nM.
With `C=CC(=O)N1CCN(c2nc(=O)n3c4nc(c(F)cc24)-c2c(F)cccc2OCCCc2ccnc(C(C)C)c2-3)C[C@@H]1CC` [Example 103, 2-[(3S)-3-ethyl-4-(prop-2-enoyl)piperazin-1-yl]-17,20-difluoro-6-(propan-2-yl)-11,12-dihydro-4H,10H-1,18-ethenopyrido[4,3-e]pyrimido[1,6-g][1,7,9] benzoxadiazacyclododecin-4-one], the IC50 came to 107 nM in assay [1] and 847 nM in assay [2] (Homo sapiens, NCI-H358, 2 h).
For `C=CC(=O)N1C[C@@H]2C[C@H]1CN2c1nc(=O)n2c3nc(c(F)cc13)-c1c(F)cccc1OCCCCc1ccnc(C(C)C)c1-2` [Example 104, 18,21-difluoro-6-(propan-2-yl)-2-[(1S,4S)-5-(prop-2-enoyl)-2,5-diazabicyclo[2.2.1]heptan-2-yl]-10,11,12,13-tetrahydro-4H-1,19-ethenopyrido[4,3-f]pyrimido[1,6-h][1,8,10]benzoxadiazacyclotridecin-4-one], in that order: 1470 nM and 8850 nM.
As for `C=CC(=O)N1CC2CCC1CN2c1nc(=O)n2c3nc(c(F)cc13)-c1c(F)cccc1OCCCc1ccnc(C(C)C)c1-2` (stereo not drawn) [Example 105, 17,20-difluoro-6-(propan-2-yl)-2-[5-(prop-2-enoyl)-2,5-diazabicyclo[2.2.2]octan-2-yl]-11,12-dihydro-4H,10H-1,18-ethenopyrido[4,3-e]pyrimido[1,6-g][1,7,9]benzoxadiazacyclododecin-4-one], the IC50 in assay [1] was 1910 nM; in assay [2] (Homo sapiens, NCI-H358, 2 h), 3600 nM.
`C=CC(=O)N1CC2CCC1CN2c1nc(=O)n2c3nc(c(F)cc13)-c1c(F)cccc1OCCCc1ccnc(C(C)C)c1-2` (stereo not drawn) [Example 106, 17,20-difluoro-4-oxo-6-(propan-2-yl)-2-[5-(prop-2-enoyl)-2,5-diazabicyclo[2.2.2]octan-2-yl]-11,12-dihydro-4H,10H-1,18-ethenopyrido[4,3-e]pyrimido[1,6-g][1,7,9] benzoxadiazacyclododecin-4-one]: the IC50 in assay [1] was 2550 nM; in assay [2] it was 5620 nM.
The matching figures for `C=CC(=O)N1CC(C)N(c2nc(=O)n3c4nc(c(F)cc24)-c2c(F)ccc4cnn(c24)CCCCc2ccnc(C(C)C)c2-3)CC1C` [Example 107, 2-[(2S,5R)-2,5-dimethyl-4-(prop-2-enoyl)piperazin-1-yl]-19,22-difluoro-6-(propan-2-yl)-10,11,12,13-tetrahydro-4H-1,20-(ethanediylidene)pyrido[4′,3′:12,13]pyrimido[1′,6′:1,2][1,3,7]triazacyclotridecino[5,6,7-hi]indazol-4-one]: 10 nM and 20 nM.
On to `C=CC(=O)N1C[C@H](C)N(c2nc(=O)n3c4nc(c(F)cc24)-c2cc(F)cc4cnn(c24)CCCCc2ccnc(C(C)C)c2-3)C[C@H]1C` [Example 108, 2-[(2S,5R)-2,5-dimethyl-4-(prop-2-enoyl)piperazin-1-yl]-18,22-difluoro-6-(propan-2-yl)-10,11,12,13-tetrahydro-4H-1,20-(ethanediylidene)pyrido [4′,3′:12,13]pyrimido[1′,6′:1,2][1,3,7] triazacyclotridecino[5,6,7-hi]indazol-4-one], for which the IC50 in assay [1] is 20 nM; in assay [2] (Homo sapiens, NCI-H358, 2 h), 68 nM.
Turning to `C=CC(=O)N1CC(C)N(c2nc(=O)n3c4nc(c(Cl)cc24)-c2c(F)cccc2COCCc2ccnc(C(C)C)c2-3)CC1C` [Example 109, 20-chloro-2-[(2S,5R)-2,5-dimethyl-4-(prop-2-enoyl)piperazin-1-yl]-17-fluoro-6-(propan-2-yl)-10,11-dihydro-1,18-ethenopyrido[3,4-e]pyrimido[6,1-c][9,2,4]benzoxadiazacyclododecin-4(13H)-one], the IC50 in assay [1] came to 2.3 nM; in assay [2], 21 nM.
For `C=CC(=O)N1CC(C)N(c2nc(=O)n3c4nc(c(C)cc24)-c2c(F)ccc(F)c2OCCOc2ccnc(C(C)C)c2-3)CC1C` [Example 110, 2-[(2S,5R)-2,5-dimethyl-4-(prop-2-enoyl)piperazin-1-yl]-14,17-difluoro-20-methyl-6-(propan-2-yl)-11,12-dihydro-4H-1,18-ethenopyrido[4,3-e]pyrimido[1,6-g][1,4,7,9]benzodioxadiazacyclododecin-4-one], in that order: 4.5 nM and 23 nM.

In general, IC50 refers to the concentration at which inhibition is half-maximal.

For the origin of these results see patent US20240043448A1, “Small Molecule Inhibitors of KRAS G12C Mutant” (Merck Sharp & Dohme LLC, priority 2019, published 2024).
